System: dermal capillaries of normal human skin maintained alive
Test: Vascular modulation (vasodilation/vasoconstriction) in a model of normal human skin maintained alive; histological morphometry of dermal capillaries
Assay type: cell-based
Conditions: 1 μM noradrenalin in culture medium, 48 hours organ culture; for percentage of dilated vessels (dilated capillaries): mean of six skin samples, control skin 74.8 ± 20.8; for mean area occupied by the lumen of the blood vessels (capillaries) in the dermis: control skin 153.6 ± 74.4
Source text: The object of this study is to analyse the effect on vascular modulation, namely vasodilation or vasoconstriction, of the essential oil of Laserpitium siler L. evaluated in a model of normal human skin maintained alive.
The analyses are histological by morphometric quantification of the calibre of the dermal capillaries and semi-quantitative evaluation of the oedema.
Fragments of normal human skin are obtained from a plastic surgery. They are placed in inserts, which are themselves positioned on culture wells. Culture medium specifically adapted to survival maintenance is added to the bottom of the wells, a passage being made by slow diffusion between the two compartments via a porous membrane (3 μm).
The second positive control consisted in adding 1 μM noradrenalin to the culture medium so as to obtain vasoconstriction of the dermal capillaries.
The essential oil of Laserpitium siler L. at the test concentrations dissolved in ethanol is added to the culture medium.
The skin fragments are then maintained in organ culture for 48 hours in an oven under a humid atmosphere, at 37° C. and in the presence of 5% CO2.
The skin fragments are fixed in Bouin liquid and included in paraffin. After staining with haemalum-eosin, two criteria are evaluated on the dermis: the oedema and the calibre of the capillaries.
After staining with haemalum-eosin, the vascular dilation is evaluated by counting the number of dilated blood vessels on the entire histological slice (16 fields at magnification 40). This number is carried over to the total number of blood vessels in order to calculate the percentage of dilated vessels.
Moreover, a morphometric analysis of the area (μm^2) occupied by the lumen of the blood vessels was performed in order to determine the mean area (μm^2) occupied in the dermis by the vessels.
A mean is calculated for each parameter from the results obtained on the six skin samples. The statistical analysis was performed via the “reduced deviation” Student test or paired-samples test, with a risk a of 5%.

NC[C@H](O)c1ccc(O)c(O)c1 [noradrenalin]
percentage of dilated vessels (dilated capillaries): 52.5 ± 20.6%
percentage of dilated vessels (dilated capillaries) (listed as Noradrenalin): 52.5%
mean area occupied by the lumen of the blood vessels (capillaries) in the dermis: 93.7 ± 65.7 μm^2
mean area occupied by the lumen of the blood vessels (capillaries) in the dermis (listed as Noradrenalin): 93.7 μm^2

From patent US10085933B2, “Cosmetic use of an essential oil of Laserpitium siler L. for keratin materials” (L'OREAL, priority 2013, dated 2018)
